Experimental data: patent US6653322B1, “Therapeutic combinations of RAR antagonists and RXR agonists and use thereof” (Bristol-Myers Squibb Company, priority 1996, dated 2003)
“Also recorded” adds a separate entry of the source.

Key:
RARβ2 and RARγ mRNA = experiment: RARβ/RARγ expression by reverse transcriptase PCR in NB4 cells; assay type: cell-based, human; settings: for Expression of RARβ2 (and RARγ) by RT-PCR: retinoid alone
Procedure: Total RNA was isolated and reverse transcribed in a buffer solution comprising 10 mM Tris-HCl (pH 8.3), 50 mM KCl, 2 mM MgCl2 and 1 mM of all four deoxynucleoside triphosphates, using 25 units of AMV reverse transcriptase in the presence of 50 units of RNAsin for 60 minutes at 42° C. For reverse transcription, 25 picomoles per reaction of the common antisense primer 5′-[…]-3′ (SEQ ID NO:6) for either RARα, β or γ was used. For each PCR reaction the common antisense primer, one-fourth of the reverse transcribed product and the following specific sense primers were used: […]
The amplification was carried out in a final volume of 0.1 ml, using Taq DNA polymerase (Perkin Elmer Cetus) according the manufacturer's instructions. Eighteen PCR cycles (30 seconds at 94° C., 30 seconds at 65° C. and 30 seconds at 72° C.) were performed, and a 10 microliter aliquot of each reaction was analyzed by electrophoresis on a 6% native polyacrylamide gel, which was then stained with ethidium bromide and examined by ultraviolet illumination.

NB4 cells [1] = experiment: NB4 cell differentiation (TPA-induced nitroblue tetrazolium reduction); assay type: cell-based, human
Procedure: NB4 cells were obtained from ATCC and were grown in RPMI-1640 (plus 2 mM L-glutamine) containing 100 […] penicillin and streptomycin and 8% fetal bovine serum (FBS). Cells were treated for four days with retinoid(s) or ethanol vehicle, then washed and resuspended at a density of 5×10^5 cells/ml. 50 microliter aliquots of this suspension were spread over poly-L-lysine coated slides (Sigma, St. Louis, Mo.). After washing with PBS (137 mM NaCl, 2.7 mM KCl, 4.3 mM Na2HPO4, 1.4 mM KH2PO4), the cells were fixed for 10 minutes in 2% formalin (37% formaldehyde in 15% methanol in water) at room temperature.
Following fixation, cells were washed three times in PBS and were scored by TPA (12-O-tetradecanoyl-phorbol-13-acetate, 200 ng/ml)-induced nitroblue tetrazolium reduction (Sigma Fast BCIP/NBT) for 30 minutes at 37° C. Samples were examined for cellular and nuclear morphology with an optical microscope (Diavert Leitz); the percentage of differentiated cells was determined by counting at least 300 cells for each treatment.

AP1 activity = settings: via all three RARs; Chen et al. 1995; cited from earlier work
NB4 cells [2] = experiment: NB4 cell apoptosis (flow cytometry, DNA fragmentation); assay type: cell-based, human; settings: for Induction of NB4 cell apoptosis: retinoid alone
Procedure: The cell cycle distribution and presence of “sub-2N” cells and particles in control and retinoid-treated NB4 cells were determined by cell cycle flow cytometry based on DNA content, using an EPICS Profile II cell sorter (Coulter Electronics, Inc., Hialeah, Fla.) equipped with a 15 watt argon laser tuned to an excitation wavelength of 488 nm and filter sets providing an emission wavelength of 575 nm. Cultures of untreated or retinoid-treated cells were centrifuged (250×g) and fixed in 70% ethanol and stored at −20° C. Following two washes in PBS, the cells and subcellular particles were incubated in 1 mg/ml RNase A (59 Kunitz units/mg, Sigma Chemical Co., St. Louis, Mo.) for 30 minutes at 37° C., centrifuged and resuspended in PBS at a concentration of approximately 10^6 cells per ml. Ethidium bromide was added to a final concentration of 50 micrograms/ml immediately prior to sample analysis.
The induction of apoptosis by retinoids was also determined by the appearance of a “ladder” of fragmented DNA as previously described (Nagy, L., et al., Mol. Cell. Biol. 15:3540-3551 (1995)). Cells were refed with fresh media and retinoids every 2 days, and the cell density was maintained well below saturation in order to prevent cell death due to nutrient and/or mitogen depletion. Five micrograms per lane of DNA was electrophoresed in a 1.5% agarose gel, followed by staining with ethidium bromide, and DNA bands were visualized and photographed via ultraviolet illumination of ethidium bromide fluorescence.

PML-RARα = biological target: T1, PML-RARα (Homo sapiens, UniProt P10276+P29590); experiment: Anti-PML immunofluorescence: association of PML/PML-RARα with nuclear bodies in NB4 cells; assay type: cell-based; settings: with SR11237
T1 construct: induced the association of endogenous PMUPML-RARα with nuclear bodies; endogenous in cells; host or cells: NB4 human acute promyelocytic leukemia cells
T1 sequence (P10276 61-462 limits assumed): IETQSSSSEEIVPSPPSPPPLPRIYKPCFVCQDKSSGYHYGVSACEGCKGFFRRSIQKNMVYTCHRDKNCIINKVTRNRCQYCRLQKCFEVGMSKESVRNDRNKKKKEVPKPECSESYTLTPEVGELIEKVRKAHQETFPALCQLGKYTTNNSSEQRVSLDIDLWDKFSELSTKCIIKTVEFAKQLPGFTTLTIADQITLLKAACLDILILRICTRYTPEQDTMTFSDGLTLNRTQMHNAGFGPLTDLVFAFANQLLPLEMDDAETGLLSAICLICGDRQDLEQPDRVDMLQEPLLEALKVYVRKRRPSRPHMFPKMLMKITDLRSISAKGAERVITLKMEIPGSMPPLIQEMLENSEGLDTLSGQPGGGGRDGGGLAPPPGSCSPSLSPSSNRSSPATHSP
Procedure: Following fixation, cells were permeabilized with 0.1% Triton X-100 in PBS (buffer A). After washing in PBS, the cells were blocked in 0.5 mg/ml normal goat IgG (Jackson Laboratories, Bar Harbor, Me.) in PBS for 30 minutes at room temperature, and thereafter incubated overnight at 4° C. with a polyclonal anti-PML antibody (the kind gift of Dr. Anne Dejean), diluted in buffer A containing 0.5 mg/ml normal goat IgG (buffer B) at 4° C. After three washes in buffer A, the cells were incubated with donkey anti-rabbit IgG (H+L) conjugated with cyanine 3 (Jackson Laboratories, Bar Harbor, Me.) in buffer B for 1 hour at room temperature. Following washes in PBS the mounted samples were examined with a confocal laser microscope (TCS, Leica) equipped with cyanine optics for PML localization.

GAL-RARα = biological target: T2, GAL-RARα (Homo sapiens, UniProt P10276); experiment: HeLa reporter cells, agonistic/antagonistic activity of RAR-specific ligands; assay type: cell-based; settings: FIG. 1, FIG. 2
T2 construct: expressed in transfected cells; host or cells: HeLa
T2 sequence (P10276 183-417 limits assumed): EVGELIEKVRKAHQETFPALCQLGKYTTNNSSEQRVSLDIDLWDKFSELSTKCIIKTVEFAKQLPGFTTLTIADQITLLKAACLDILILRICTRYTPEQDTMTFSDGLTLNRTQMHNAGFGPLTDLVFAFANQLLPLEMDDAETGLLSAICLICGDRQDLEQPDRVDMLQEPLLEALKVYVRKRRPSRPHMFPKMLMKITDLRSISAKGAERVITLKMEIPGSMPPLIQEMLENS
Procedure: (§1) HeLa reporter cell lines containing a retinoid-inducible luciferase reporter gene (17 m)5-globin-Luc in the stably transfected reporter constructs GAL-RARα, GAL-RARβ or GAL-RARγ were constructed and used as described previously (Chen, J. Y., et al., EMBO J. 14:1187-1197 (1995)). Cells were treated with RAR-specific ligands, and luciferase-induced bioluminescence was monitored in vivo using a single-photon-counting camera (Hamamatsu) by seeding equal amounts of cells in 24-well tissue culture plates and incubating them with increasing concentrations of retinoids alone, or in the presence of T-RA to determine the antagonistic potential of the ligands.

GAL-RARγ = biological target: T3, GAL-RARγ (Homo sapiens, UniProt P13631); experiment: as above; assay type: cell-based; settings: FIG. 1
T3 construct: expressed in transfected cells; host or cells: HeLa
T3 sequence (P13631 185-419 limits assumed): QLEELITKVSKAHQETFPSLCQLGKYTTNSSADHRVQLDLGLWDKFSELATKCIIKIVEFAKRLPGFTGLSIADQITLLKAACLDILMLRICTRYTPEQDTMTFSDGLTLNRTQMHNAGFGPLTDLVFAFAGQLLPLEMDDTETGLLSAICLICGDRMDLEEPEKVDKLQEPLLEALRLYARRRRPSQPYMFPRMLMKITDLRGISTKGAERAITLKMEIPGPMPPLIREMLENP
Procedure: as §1

GAL-RARβ = biological target: T4, GAL-RARβ (Homo sapiens, UniProt P10826); experiment: as above; assay type: cell-based; settings: FIG. 1
T4 construct: expressed in transfected cells; host or cells: HeLa
T4 sequence (P10826 183-417 limits assumed): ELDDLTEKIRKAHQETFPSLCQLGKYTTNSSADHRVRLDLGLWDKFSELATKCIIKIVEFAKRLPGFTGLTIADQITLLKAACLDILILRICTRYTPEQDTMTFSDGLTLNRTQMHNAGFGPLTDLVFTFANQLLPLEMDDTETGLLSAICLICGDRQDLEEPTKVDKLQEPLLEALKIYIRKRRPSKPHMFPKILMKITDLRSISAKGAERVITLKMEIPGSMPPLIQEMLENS
Procedure: as §1

P19 cells = settings: ligand on its own, Roy et al. 1995; cited from earlier work
F9 EC cells = settings: ligand on its own, Roy et al. 1995; cited from earlier work
[3] = in presence of RXR agonist SR11237
[4] = retinoid alone at 1 (concentration unit not given), 4 days
[5] = retinoid alone at 10 (concentration unit not given), 4 days
[6] = retinoid alone at 100 (concentration unit not given), 4 days
[7] = retinoid at 1 +100 nM SR11237, 4 days
[8] = retinoid alone at 1000 (concentration unit not given), 4 days
[9] = retinoid at 10 +100 nM SR11237, 4 days
[10] = retinoid at 100 +100 nM SR11237, 4 days

CC1(C)CCC(C)(C)c2cc(NC(=O)c3ccc(C(=O)O)cc3)ccc21 [Am80]
Expression of RARβ2 (and RARγ) by RT-PCR (RARβ2 and RARγ mRNA): induced expression of RARβ2 (and RARγ) was confirmed | Induction of NB4 cell differentiation (NB4 cells [1]; [3]): significantly more efficient at inducing differentiation at low concentrations | Percentage of NB4 cells differentiated (NB4 cells [1]; retinoid alone at 0.1 (concentration unit not given), 4 days): <1% | Percentage of NB4 cells differentiated (NB4 cells [1]; retinoid alone at 0.3 (concentration unit not given), 4 days): <1% | Percentage of NB4 cells differentiated (NB4 cells [1]; retinoid alone at 0.5 (concentration unit not given), 4 days): <1% | Percentage of NB4 cells differentiated (NB4 cells [1]; [4]): 80% | Percentage of NB4 cells differentiated (NB4 cells [1]; [5]): 81% | Percentage of NB4 cells differentiated (NB4 cells [1]; [6]): 80% | Percentage of NB4 cells differentiated (NB4 cells [1]; retinoid at 0.1 +100 nM SR11237, 4 days): <1% | Percentage of NB4 cells differentiated (NB4 cells [1]; retinoid at 0.3 +100 nM SR11237, 4 days): 20% | Percentage of NB4 cells differentiated (NB4 cells [1]; retinoid at 0.5 +100 nM SR11237, 4 days): 40% | Percentage of NB4 cells differentiated (NB4 cells [1]; [7]): 80% | Induction of NB4 cell differentiation (NB4 cells [1]; retinoid on its own): efficiently induced differentiation

CC1=C(/C=C/C(C)=C\C=C\C(C)=C\C(=O)O)C(C)(C)CCC1 [Compound 9C-RA, 9-cis (9C-RA) retinoic acid]
Percentage of NB4 cells differentiated (NB4 cells [1]; [4]): <1% | Percentage of NB4 cells differentiated (NB4 cells [1]; [5]): 4% | Percentage of NB4 cells differentiated (NB4 cells [1]; [6]): 65% | Percentage of NB4 cells differentiated (NB4 cells [1]; [8]): 70%

CC1(C)CC=C(c2ccccc2)c2cc(/C=C/c3ccc(C(=O)O)cc3)ccc21 [Compound A]
Repression of AP1 activity (AP1 activity): efficiently repressing AP1 activity via all three RARs | Antiproliferative and apoptotic effect on NB4 cells (NB4 cells [2]; in combination with SR11237): strong antiproliferative and apoptotic effect | Induction of NB4 cell apoptosis (NB4 cells [2]): inefficient alone | Association of PML-RARα with nuclear bodies (PML-RARα): indistinguishable from that seen in presence of RARα agonists | Expression of RARβ2 (and RARγ) by RT-PCR (RARβ2 and RARγ mRNA): no induction | RARβ and RARγ mRNA production (RARβ2 and RARγ mRNA; with SR11237): efficient accumulation of RARβ and RARγ mRNA | Induction of NB4 cell differentiation (NB4 cells [1]; [3]): induced differentiation with higher efficiency than T-RA or 9C-RA | Percentage of NB4 cells differentiated (NB4 cells [1]; [8]): <1% | Percentage of NB4 cells differentiated (NB4 cells [1]; [7]): <1% | Percentage of NB4 cells differentiated (NB4 cells [1]; [9]): 65% | Percentage of NB4 cells differentiated (NB4 cells [1]; [10]): 78% | Induction of NB4 cell differentiation (NB4 cells [1]; retinoid on its own): ineffective on their own

CC1(C)CC=C(c2cnc3ccccc3c2)c2cc(C(=O)Nc3ccc(C(=O)O)cc3)ccc21 [Compound B]
Binding to RARα (GAL-RARα): lower binding affinity for RARα | Binding to RARγ (GAL-RARγ): does not bind | Binding to RARβ (GAL-RARβ): does not bind | Block of differentiation induced by 1 nM Am80 (NB4 cells [1]; excess of the compound): completely blocked | Induction of NB4 cell differentiation (NB4 cells [1]; [3]): induced differentiation | Percentage of NB4 cells differentiated (NB4 cells [1]; [8]): <1% | Percentage of NB4 cells differentiated (NB4 cells [1]; [7]): <1% | Percentage of NB4 cells differentiated (NB4 cells [1]; [9]): 3% | Percentage of NB4 cells differentiated (NB4 cells [1]; [10]): 5% | Percentage of NB4 cells differentiated (NB4 cells [1]; retinoid at 1000 +100 nM SR11237, 4 days): 10% | Induction of NB4 cell differentiation (NB4 cells [1]; retinoid on its own): ineffective on their own

CC1(C)CCC(C)(C)c2cc(C3(c4ccc(C(=O)O)cc4)OCCO3)ccc21 [SR11237]
Induction of NB4 cell apoptosis (NB4 cells [2]): inefficient alone | Induction of differentiation and expression of RA target genes (P19 cells): unable to induce | Induction of differentiation and expression of RA target genes (F9 EC cells): unable to induce | Percentage of NB4 cells differentiated (NB4 cells [1]; [8]): <2% | Induction of NB4 cell differentiation (NB4 cells [1]; retinoid on its own): ineffective on their own; also recorded: did not induce differentiation

CC1=C(/C=C/C(C)=C/C=C/C(C)=C/C(=O)O)C(C)(C)CCC1 [T-RA, all-trans retinoic acid]
Induction of NB4 cell apoptosis (NB4 cells [2]): extensive apoptosis | Percentage of NB4 cells differentiated (NB4 cells [1]; [4]): <1% | Percentage of NB4 cells differentiated (NB4 cells [1]; [5]): <1% | Percentage of NB4 cells differentiated (NB4 cells [1]; [6]): 81% | Percentage of NB4 cells differentiated (NB4 cells [1]; [8]): 80%
